Test results published in ChEMBL document CHEMBL4732172, “Discovery, semisynthesis and neurite outgrowth-promoting activity of novel merrillianone/cycloparviforalone based esters as neurotrophic agents” (Bioorg Med Chem Lett, 2021).
Active and inactive are the calls of the source. The calls are words filed in the database; no cut-off is given here.

Experiments:
[1] = test system: PC-12; test: Neurotrophic activity in rat PC-12 cells assessed as neurite outgrowth promoting activity in NGF-induced cells by measuring differentiation rate at 10 […] (reference value: 4.24 +/- 0.03 %); type: functional; set-up: concentration or dose not given beside the values
[2] = Hydrolytic stability in phosphate buffer with pH 3.5 assessed as retention time measured after 2 hrs by HPLC analysis; type: physicochemical; settings: pH 3.5, 2 h
[3] = Hydrolytic stability in phosphate buffer with pH 3.5 assessed as retention time measured after 4 hrs by HPLC analysis; type: physicochemical; settings: pH 3.5, 4 h
[4] = Hydrolytic stability in phosphate buffer with pH 3.5 assessed as retention time measured after 6 hrs by HPLC analysis; type: physicochemical; settings: pH 3.5, 6 h
[5] = test system: PC-12; test: Induction of neurite outgrowth in NGF-induced rat PC-12 cells assessed as increase in average neurite length at 10 uM in presence of by methylene blue staining based light microscopy; type: functional, cell-based
[6] = test system: PC-12; test: Neurotrophic activity in rat PC-12 cells assessed as neurite outgrowth promoting activity in NGF-induced cells by measuring differentiation rate at 10 […] relative to merrillianone; type: functional
[7] = test system: PC-12; test: Neurotrophic activity in rat PC-12 cells assessed as neurite outgrowth promoting activity in NGF-induced cells by measuring differentiation rate at 10 […] relative to cycloparviforalone; type: functional

SMILES | Activity [1] [%] | further results
C[C@@H]1CC[C@@]2(O)[C@]13C[C@@]1(OC(=O)Cc4ccc5ccccc5c4)OC(OC[C@@]2(C)[C@@]1(C)O)[C@@H]3O | 4.76 | Retention_time [2]: 15.77 min; Retention_time [3]: 15.97 min; Retention_time [4]: 16.154 min
C[C@@H]1CC=C2[C@]13C[C@@]1(O)OC(OC[C@@]2(C)[C@@]1(C)O)[C@@H]3O | 5.31 | 
C[C@@H]1CC[C@@]2(O)[C@]13C[C@@]1(OC(=O)CCc4ccc(Br)cc4)OC(OC[C@@]2(C)[C@@]1(C)O)[C@@H]3O | 6.15 | 
C[C@@H]1CC[C@@]2(O)[C@]13C[C@@]1(OC(=O)Cc4cccc(Br)c4)OC(OC[C@@]2(C)[C@@]1(C)O)[C@@H]3O | 7.35 | 
C[C@@H]1CC[C@@]2(O)[C@]13C[C@@]1(OC(=O)CCc4cccc(F)c4)OC(OC[C@@]2(C)[C@@]1(C)O)[C@@H]3O | 6.35 | 
C[C@@H]1CC=C2[C@]13C[C@@]1(O)OC(OC[C@@]2(C)[C@@]1(C)O)[C@@H]3OC(=O)CCc1ccc(Cl)cc1 | 6.05 | 
C[C@@H]1CC[C@@]2(O)[C@]13C[C@@]1(OC(=O)Cc4ccc(F)cc4)OC(OC[C@@]2(C)[C@@]1(C)O)[C@@H]3O | 5.74 | 
C[C@@H]1CC[C@@]2(O)[C@]13C[C@@]1(OC(=O)CCc4cccc(Br)c4)OC(OC[C@@]2(C)[C@@]1(C)O)[C@@H]3O | 5.26 | 
C[C@@H]1CC=C2[C@]13C[C@@]1(O)OC(OC[C@@]2(C)[C@@]1(C)O)[C@@H]3OC(=O)CCc1ccc(Br)cc1 | 6.03 | 
C/C=C/C=C/C(=O)O[C@]12C[C@]34[C@H](C)CC[C@]3(O)[C@@](C)(COC(O1)[C@@H]4O)[C@@]2(C)O | 11.74 | Activity [5]: Active; fold change (FC) [6]: 2; fold change (FC) [7]: 2
C[C@@H]1CC[C@@]2(O)[C@]13C[C@@]1(OC(=O)/C=C/c4ccccc4)OC(OC[C@@]2(C)[C@@]1(C)O)[C@@H]3O | 5.03 | 
C[C@@H]1CC=C2[C@]13C[C@@]1(O)OC(OC[C@@]2(C)[C@@]1(C)O)[C@@H]3OC(=O)CCc1ccc(F)cc1 | 5.43 | 
C[C@@H]1CC=C2[C@]13C[C@@]1(O)OC(OC[C@@]2(C)[C@@]1(C)O)[C@@H]3OC(=O)CCC(=O)c1ccccc1 | 7.21 | 
C[C@@H]1CC[C@@]2(O)[C@]13C[C@@]1(OC(=O)Cc4cccc(F)c4)OC(OC[C@@]2(C)[C@@]1(C)O)[C@@H]3O | 6.52 | 
C[C@@H]1CC=C2[C@]13C[C@@]1(O)OC(OC[C@@]2(C)[C@@]1(C)O)[C@@H]3OC(=O)CCc1ccccc1 | 5.81 | 
C[C@@H]1CC[C@@]2(O)[C@]13C[C@@]1(O)OC(OC[C@@]2(C)[C@@]1(C)O)[C@@H]3O | 5.75 | 
C[C@@H]1CC[C@@]2(O)[C@]13C[C@@]1(OC(=O)Cc4cccc(Cl)c4)OC(OC[C@@]2(C)[C@@]1(C)O)[C@@H]3O | 7.13 | 
C[C@@H]1CC[C@@]2(O)[C@]13C[C@@]1(OC(=O)CCc4ccc(F)cc4)OC(OC[C@@]2(C)[C@@]1(C)O)[C@@H]3O | 10.41 | Activity [5]: Active; fold change (FC) [6]: 2; fold change (FC) [7]: 2
C[C@@H]1CC[C@@]2(O)[C@]13C[C@@]1(OC(=O)CCC(=O)c4ccccc4)OC(OC[C@@]2(C)[C@@]1(C)O)[C@@H]3O | 5.69 | 
C[C@@H]1CC[C@@]2(O)[C@]13C[C@@]1(OC(=O)CCc4cccc(Cl)c4)OC(OC[C@@]2(C)[C@@]1(C)O)[C@@H]3O | 4.57 | 
C[C@@H]1CC[C@@]2(O)[C@]13C[C@@]1(OC(=O)Cc4ccc(Cl)cc4)OC(OC[C@@]2(C)[C@@]1(C)O)[C@@H]3O | 4.9 | 
C/C=C/C=C/C(=O)O[C@H]1C2OC[C@]3(C)C4=CC[C@@H](C)[C@@]41C[C@@](O)(O2)[C@]3(C)O | 11.11 | Activity [5]: Active; fold change (FC) [6]: 2; fold change (FC) [7]: 2
C[C@@H]1CC=C2[C@]13C[C@@]1(O)OC(OC[C@@]2(C)[C@@]1(C)O)[C@@H]3OC(=O)CCc1cccc(Cl)c1 | 5.6 | 
C[C@@H]1CC[C@@]2(O)[C@]13C[C@@]1(OC(=O)Cc4ccc(Br)cc4)OC(OC[C@@]2(C)[C@@]1(C)O)[C@@H]3O | 6.12 | 
C[C@@H]1CC=C2[C@]13C[C@@]1(O)OC(OC[C@@]2(C)[C@@]1(C)O)[C@@H]3OC(=O)CCc1cccc(F)c1 | 4.97 | 
C[C@@H]1CC=C2[C@]13C[C@@]1(O)OC(OC[C@@]2(C)[C@@]1(C)O)[C@@H]3OC(=O)CCc1cccc(Br)c1 | 5.26 | 
C[C@@H]1CC[C@@]2(O)[C@]13C[C@@]1(OC(=O)CCc4ccc(Cl)cc4)OC(OC[C@@]2(C)[C@@]1(C)O)[C@@H]3O | 5.87 | 
